Test results from patent publication US20150322051A1, “Macrocyclic picolinamides as fungicides” (Dow AgroSciences LLC, priority 2014, published 2015).

Assays:
Type in all cases: in vivo
[1] = tested on: Cercospora beticola (CERCBE); assay: Leaf spot of sugar beets (CERCBE) whole-plant fungicidal test; details: sugar beet, 1 Day Protectant
Protocol: All fungicides were evaluated using the aforementioned method for their activity vs. all target diseases, unless stated otherwise. Wheat leaf blotch and brown rust activity were also evaluated using track spray applications, in which case the fungicides were formulated as EC formulations, containing 0.1% Trycol 5941 in the spray solutions. Wheat plants (variety Yuma) were grown from seed in a greenhouse in 50% mineral soil/50% soil-less Metro mix until the first leaf was fully emerged, with 7-10 seedlings per pot. These plants were inoculated with an aqueous spore suspension of Septoria tritici either prior to or after fungicide treatments. After inoculation the plants were kept in 100% relative humidity (one day in a dark dew chamber followed by two to three days in a lighted dew chamber at 20° C.) to permit spores to germinate and infect the leaf. The plants were then transferred to a greenhouse set at 20° C. for disease to develop. When disease symptoms were fully expressed on the 1st leaves of untreated plants, infection levels were assessed on a scale of 0 to 100 percent disease severity. Percent disease control was calculated using the ratio of disease severity on treated plants relative to untreated plants. Sugar beet plants (variety HH88) were grown in soil-less Metro mix and trimmed regularly to maintain a uniform plant size prior to test. […]

[2] = tested on: Alternaria solani (ALTESO); assay: Tomato early blight (ALTESO) whole-plant fungicidal test; details: 1 Day Protectant
Protocol: (§1) All fungicides were evaluated using the aforementioned method for their activity vs. all target diseases, unless stated otherwise. Wheat leaf blotch and brown rust activity were also evaluated using track spray applications, in which case the fungicides were formulated as EC formulations, containing 0.1% Trycol 5941 in the spray solutions. Wheat plants (variety Yuma) were grown from seed in a greenhouse in 50% mineral soil/50% soil-less Metro mix until the first leaf was fully emerged, with 7-10 seedlings per pot. These plants were inoculated with an aqueous spore suspension of Septoria tritici either prior to or after fungicide treatments. After inoculation the plants were kept in 100% relative humidity (one day in a dark dew chamber followed by two to three days in a lighted dew chamber at 20° C.) to permit spores to germinate and infect the leaf. The plants were then transferred to a greenhouse set at 20° C. for disease to develop. When disease symptoms were fully expressed on the 1st leaves of untreated plants, infection levels were assessed on a scale of 0 to 100 percent disease severity. Percent disease control was calculated using the ratio of disease severity on treated plants relative to untreated plants. Tomato plants (variety Outdoor Girl) were propagated in soil-less Metro mix, with each pot having one plant, and used when 12 to 14 days old. […]

[3] = tested on: Glomerella lagenarium; anamorph: Colletotrichum lagenarium (COLLLA); assay: Cucumber anthracnose (COLLLA) whole-plant fungicidal test; details: 1 Day Protectant
Protocol: as §1, with “Cucumber seedlings” for “Tomato plants”, “Bush Pickle)” for “Outdoor Girl)”, “used in the test” for “used”

[4] = tested on: Leptosphaeria nodorum (LEPTNO); assay: Wheat glume blotch (LEPTNO) whole-plant fungicidal test; details: 1 Day Protectant

For `CCCC[C@@H]1[C@@H](Cc2ccc(C(F)(F)F)cc2)CCC[C@H](NC(=O)c2nccc(OC)c2OCOC(C)=O)C(=O)O[C@H]1C` [Compound 3], the “Disease Control at 100 ppm CERCBE 1DP” value [1] was “B (≦70)”, the “Disease Control at 100 ppm ALTESO 1DP” value [2] was “A (>70)” and the “Disease Control at 100 ppm COLLLA 1DP” value [3] was “A (>70)”. For the same molecule, the “Disease Control at 100 ppm LEPTNO 1DP” value [4] was “A (>70)”.
